Experimental findings from a melting point compilation (Tetko et al.; mined from patent text by program, amines drawn as free bases though some values may be those of a salt) are described below.

The melting point is the temperature, or range, at which the solid turns liquid.

`OC1(c2cccn2Cc2ccccc2F)CCN(CCc2ccc(Cl)cc2)CC1` yielded a melting point of 108 to 109 °C. With `Cc1cc(Oc2ccc(N)cc2)c2ncccc2c1` the figure was 184 to 185 °C; with `CC(C)n1nc(-c2nc(Br)c(N)nc2-c2ccccc2)ccc1=O`, 204 to 206 °C; with `COCNC(=O)CNC(=O)OCc1ccccc1`, 77 to 78 °C.

The compound `CC(=O)c1cnc2onc(C)c2c1Cl` had a melting point of 63 °C. Compound `CCCCCCCCC(CCCCCCCC)N1C(=O)c2ccc3c4cccc5cccc(c6ccc(c2c36)C1=O)c54` had a melting point of 143 to 144 °C. Consider `CN(C)S(=O)(=O)c1cccc(Cl)n1`, for which the melting point lay within 53 to 55 °C.

Regarding `COC(=O)C(Oc1cc(-n2c(=O)cc(C(F)(F)F)n(C)c2=O)c(F)cc1Cl)C(=O)OC`, the melting point is 141 °C.

Consider `CCOC(=O)Cc1c(C(=O)O)c(CC)c(C(=O)c2ccc(Cl)cc2)n1C`, for which the melting point is 184 to 186 °C. With `O=C(C#Cc1cccc(OCc2ccccc2)c1)c1ccccc1` the figure was 75 to 77 °C. With `Cn1nc(C#Cc2ccccc2)ccc1=O` the figure was 118 to 120 °C; with `CC(C)(C)c1cc(CCc2ccccc2NC(=O)NC2CCCC2)cc(C(C)(C)C)c1O`, 186 to 187 °C; with `CC1(C(=O)Nc2ccc(OCC3CC3)c(Cl)c2)CC1`, 111 to 113 °C. The compound `CCOC(=O)c1cnc2cc(Cl)c(F)cc2c1O` showed a melting point of 283 to 290 °C. `COC(=O)CCC(=O)c1ccc(OC(=S)N(C)C)cc1` registered a melting point of 62 to 64 °C. With `O=C(Cc1cccs1)Nc1cc(N2CC(c3ccccc3)OC2=O)ccn1` (configuration not stated) the figure was 109 to 110 °C; with `COc1cccc2c1CCc1cnoc1-2`, 84 to 86 °C; with `COc1cc(F)c(-c2cncc(OC3SCC(O)C(O)C3O)c2)c(F)c1` (configuration not stated), 200 °C. With `OC1CSC(Oc2cc(-c3ccc(F)nc3)cc(F)c2F)C(O)C1O` (configuration not stated) the figure was 179 °C. With `OCc1cn(-c2ccc(F)c(Br)c2)cn1` the figure was 151 to 152 °C; with `COc1c(Nc2ncc(Cl)c(Nc3ccccc3S(=O)(=O)N(C)C)n2)ccc2c1CCC(NCC(F)F)CC2` (configuration not stated), 118 °C; with `O=C(NC(=O)N(SN1CCOCC1)c1ccc(Oc2ccc(C(F)(F)F)cc2Cl)cc1F)c1c(F)cccc1F`, 77 to 80 °C.

As for `CC(C)[C@H](NCc1ccc(Br)cc1)C(=O)O`, the melting point was 239 to 241 °C. With `CCOC(=O)c1ccc2c(c1)N=C(C)c1ccc(OC)cc1O2` the figure was 117 to 118 °C; with `CCOC(=O)c1c2n(c3c(F)c(N4CCC(NC(=O)OC(C)(C)C)C4)c(F)cc3c1=O)C(C)S2` (configuration not stated), 174 to 176 °C. Regarding `[N-]=[N+]=NCC1=NN=C(c2ccc([N+](=O)[O-])cc2)c2cc3c(cc2C1)OCO3`, the melting point is 198 to 200 °C.

For the compound `CCCCC[C@H]1CC[C@H](c2ccc(C#C[Si](C)(C)C)nn2)CC1`, the melting point lay within 118 to 119 °C.

`CC(C)(C)OC(=O)N1CCC(S(C)(=O)=O)CC1`: the melting point was in the range of 94 to 95 °C. Under `COc1ccc(NN=C(Sc2ccc(F)cc2)C(C)=O)cc1` stands 135 to 137 °C. Under `CSc1cc(C(C)(C)C)nn1C(=O)Cl` stands 64 to 66 °C; under `CC[C@@H](c1ccccc1)N(Cc1ccc(C(=O)OC)cc1)S(=O)(=O)c1ccc(F)cc1`, 107 to 109 °C. Under `COc1c(OS(=O)(=O)c2ccc(C)cc2)cc2c(c1OC)C1=C(CCC1)C(N1C(=O)c3ccccc3C1=O)CC2` (configuration not stated) stands 139 °C; under `C/C(=C(\C#N)C(N)=S)N1CCC(O)CC1`, 160 to 163 °C. On to `O=S(=O)(On1nnc2ccc(Cl)cc21)c1ccc(Cl)cc1`, for which the melting point was 125 to 127 °C. With `COc1ccc(N2C(=O)C(=CN(C)C)c3ccccc32)cc1F` the figure was 113 to 114 °C; with `CNCC1Cc2cc(F)cc(-c3cccc(OC)c3OC)c2O1` (configuration not stated), 85 to 89 °C; with `COc1c(NC(=O)c2ccc(C)c(-n3cc(C(=O)NCC4CCN(C)CC4)nn3)c2)cc(C(C)(C)C)cc1NS(C)(=O)=O`, 202 to 203 °C. The compound `CN(C)CCCCNC(=O)c1ccc(-c2nnc(CSCCOc3ccccc3)o2)cc1` displayed a melting point of 71 to 78 °C.

Compound `CNC(=S)C1(c2cccc(C)n2)CCCCS1` (configuration not stated) registered a melting point of 139 °C. Under `CN(C)CC1CCCCN1C1c2ccccc2Oc2ccccc21` (configuration not stated) stands 81 to 83 °C. With `Clc1ccc2[nH]c(-c3ccccc3)c(CCN3CCCCC3)c2c1` the figure was 153 to 154 °C; with `COc1ccc2c(C)n[nH]c(=O)c2c1`, 203 to 205 °C; with `CCCCCCCCCC(=O)NC(=O)OCc1nc(C(C)C)c(Sc2cc(Cl)cc(Cl)c2)n1Cc1ccncc1`, 84 to 86 °C. With `CN1C(=O)C(c2ccc(OC(F)F)cc2)(c2ccc(F)c(CCCC#N)c2)N=C1N` (configuration not stated) the figure was 65 to 70 °C; with `CSc1ccccc1CNC(=O)[C@@H]1CCCN(c2cccc3c2C(=O)N(Cc2ccncc2)C3=O)C1`, 216 to 217 °C. In the case of `CC1=C(C(=O)OC(C)C)C(c2cccc3ccc(-c4ccccc4)nc23)C([N+](=O)[O-])=C(C)N1` (configuration not stated), the melting point is 205 °C.

Take `CCNc1ncn(-c2ccccc2C)c(=O)n1`: the melting point lay within 208 to 210 °C. For `O=C(NC(CS)Cc1ccccc1)N1CCN(c2ccccc2)CC1` (single isomer, unassigned; (+)), the melting point was found to be 122 °C. For `CC1(O)c2ccccc2CCC1OS(=O)(=O)CC12CCC(CC1=O)C2(C)C` (configuration not stated), the melting point came out at 105 °C. Under `CN1C[C@H](CN2CCN(C(c3ccccc3)c3ccccc3)CC2)C=C2c3cccc4[nH]c(Cl)c(c34)C[C@H]21` stands 208 °C. Under `Cc1ccsc1C(=O)Nc1ccc(C(=O)N2Cc3ccccc3Cc3ccccc32)cc1` stands 201 to 204 °C; under `CCOC(=O)COc1cc(C)sc1C#N`, 58 °C; under `COc1cc(OC)cc(-c2ncn(C)c2-c2cc(F)c(F)c(F)c2)c1`, 159 to 160 °C. Under `N#Cc1cccc(C2=Nc3ccc(-c4ccc(-c5ccccc5)cc4)cc3NC(=O)C2)c1` stands 251 to 253 °C; under `CC(=O)Nc1cc(C(F)(F)F)no1`, 108 to 110 °C. For `COc1ccc(N2C(=O)N(c3cccc(C(N)=O)c3)c3nc(Nc4ccccc4)ncc3C2C)cc1` (configuration not stated), the melting point was 268 to 273 °C. Under `CCN(CC)CCCN1C(=S)c2cccc3cccc1c23` stands 128 °C. Under `O=C(O)c1cc(OCc2ccccc2)cc([N+](=O)[O-])c1` stands 157 to 158 °C; under `O=Cc1cccc(NC(=O)NC2N=C(c3ccccc3F)c3ccccc3N(CC(=O)N3CC4CCC(CC4)C3)C2=O)c1` (racemic), 164 to 182 °C.

On to `COc1cccc(CNC(=O)c2nc3ccccc3c(=O)[nH]2)c1`, for which the melting point was 186 to 189 °C. With `Cn1ncnc1COc1nn2c(-c3ccccc3F)nncc2c1-c1cccs1` the figure was 196 to 197 °C; with `CCCn1cc2c(C3C(=O)Nc4ccc(C)cc43)nc(Cl)nc2n1` (configuration not stated), 275 to 280 °C.
